Values quoted from earlier work in patent US20060018840A1, “Aerosolizable formulation comprising nicotine” (priority 2004, published 2006).

For CC(O)C(=O)O (stereo not shown) [lactic acid], the pKa is given as “about 3.8”.
